As a reminder, the Ki is the dissociation constant of the complex between target and ligand, obtained from inhibition or displacement.

Read-outs that look alike come from different tables or passages of the source.

This test deals with T1, GABA A receptor α5β3γ2 (Homo sapiens, UniProt P18507+P31644).
T1 construct: expressed in transfected cells; host or cells: HEK293 (transiently transfected for the human receptors)
As to the kind of experiment: [3H]flumazenil competition binding, human GABA A α5β3γ2 receptors expressed in HEK293 cells. How it is done:
The affinity of compounds at GABA A receptor subtypes was measured by competition for [3H]flumazenil (85 Ci/mmol; Roche) binding to HEK293 cells expressing rat (stably transfected) or human (transiently transfected) receptors of composition α1β3γ2, α2β3γ2, α3β3γ2 and α5β3γ2.
Cell pellets were suspended in Krebs-tris buffer (4.8 mM KCl, 1.2 mM CaCl2, 1.2 mM MgCl2, 120 mM NaCl, 15 mM Tris; pH 7.5; binding assay buffer), homogenized by polytron for ca. 20 sec on ice and centrifuged for 60 min at 4° C. (50000 g; Sorvall, rotor: SM24=20000 rpm). The cell pellets were resuspended in Krebs-tris buffer and homogenized by polytron for ca. 15 sec on ice. Protein was measured (Bradford method, Bio-Rad) and aliquots of 1 mL were prepared and stored at −80° C.
Radioligand binding assays were carried out in a volume of […] (96-well plates) which contained […] of cell membranes, [3H]flumazenil at a concentration of 1 nM for α1, α2, α3 subunits and 0.5 nM for α5 subunits and the test compound in the range of […]. Nonspecific binding was defined by 10^−5 M diazepam and typically represented less than 5% of the total binding. Assays were incubated to equilibrium for 1 hour at 4° C. and harvested onto GF/C uni-filters (Packard) by filtration using a Packard harvester and washing with ice-cold wash buffer (50 mM Tris; pH 7.5). After drying, filter-retained radioactivity was detected by liquid scintillation counting. Ki values were calculated using Excel-Fit (Microsoft) and are the means of two determinations.

The mark [1] stands for this setting: Table 1, human α5, [3H]flumazenil, mean of two determinations, read-out: Ki h.
[2] abbreviates: human α5β3γ2, 0.5 nM [3H]flumazenil, mean of two determinations, read-out: Ki[μM] hα5.

As to `C#CCN(C)C(=O)c1ccc2c(C(=O)c3c(-c4ccc(F)cc4)noc3C)c[nH]c2c1` [Example 19, 3-[3-(4-Fluoro-phenyl)-5-methyl-isoxazole-4-carbonyl]-1H-indole-6-carboxylicacid methyl-prop-2-ynyl-amide], the Ki under setting [1] came out at 0.0606 µM.
With `Cc1onc(-c2ccc(F)cc2)c1C(=O)c1c[nH]c2cc(C(=O)NC3CCC3)ccc12` [Example 25, 3-[3-(4-Fluoro-phenyl)-5-methyl-isoxazole-4-carbonyl]-1H-indole-6-carboxylicacidcyclobutylamide], the Ki by setting is: under setting [1], 0.00675 µM; under setting [2], 0.00675 µM.
Regarding `CC(C)c1onc(-c2cccc(F)c2)c1C(=O)c1c[nH]c2cc(C(=O)NCc3ccco3)ccc12` [Example 36, 3-[3-(3-Fluoro-phenyl)-5-isopropyl-isoxazole-4-carbonyl]-1H-indole-6-carboxylicacid (furan-2-ylmethyl)-amide], under setting [1], the Ki is 0.0454 µM.
Still for that read-out and setting: to `CC(C)c1onc(-c2cccc(F)c2)c1C(=O)c1c[nH]c2cc(C(=O)NC3CCOCC3)ccc12` [Example 39, 3-[3-(3-Fluoro-phenyl)-5-isopropyl-isoxazole-4-carbonyl]-1H-indole-6-carboxylicacid (tetrahydro-pyran-4-yl)-amide] belongs 0.0386 µM.
With `Cc1onc(-c2ccc(F)cc2)c1C(=O)c1c[nH]c2cc(C(=O)NC3CCOCC3)ccc12` [Example 21, 3-[3-(4-Fluoro-phenyl)-5-methyl-isoxazole-4-carbonyl]-1H-indole-6-carboxylicacid (tetrahydro-pyran-4-yl)-amide], the Ki by setting is: under setting [1], 0.005 µM; under setting [2], 0.005 µM.
`Cc1onc(-c2cccc(F)c2)c1C(=O)c1cn(C)c2cc(C(=O)NCc3ccco3)ccc12` [Example 42, 3-[3-(3-Fluoro-phenyl)-5-methyl-isoxazole-4-carbonyl]-1-methyl-1H-indole-6-carboxylic acid(furan-2-ylmethyl)-amide] had a Ki of 0.0769 µM.
`Cc1onc(-c2ccc(F)cc2)c1C(=O)c1c[nH]c2cc(C(=O)NCCCN3CCOCC3)ccc12` [Example 17, 3-[3-(4-Fluoro-phenyl)-5-methyl-isoxazole-4-carbonyl]-1H-indole-6-carboxylicacid (3-morpholin-4-yl-propyl)-amide]: the inhibition constant Ki turned out to be 0.0043 µM under setting [1] and 0.0043 µM under setting [2].
`Cc1onc(-c2ccccc2)c1C(=O)c1c[nH]c2cc(C(=O)NC3CC3)ccc12` [Example 8, 3-(5-Methyl-3-phenyl-isoxazole-4-carbonyl)-1H-indole-6-carboxylicacidcyclopropylamide]: the Ki was 0.003 µM under setting [1] and 0.003 µM under setting [2].
As to `Cc1onc(-c2cccc(F)c2)c1C(=O)c1c[nH]c2cc(C(=O)NC3CCOCC3)ccc12` [Example 32, 3-[3-(3-Fluoro-phenyl)-5-methyl-isoxazole-4-carbonyl]-1H-indole-6-carboxylicacid (tetrahydro-pyran-4-yl)-amide], under setting [1], the inhibition constant Ki came to 0.0418 µM.
On the same count and under the same terms, to `Cc1onc(-c2cccc(F)c2)c1C(=O)c1cn(C)c2cc(C(=O)NC3CCCC3)ccc12` [Example 46, 3-[3-(3-Fluoro-phenyl)-5-methyl-isoxazole-4-carbonyl]-1-methyl-1H-indole-6-carboxylic acidcyclopentylamide] belongs 0.111 µM; to `Cc1onc(-c2cccc(F)c2)c1C(=O)c1c[nH]c2cc(C(=O)NC3CC3)ccc12` [Example 35, 3-[3-(3-Fluoro-phenyl)-5-methyl-isoxazole-4-carbonyl]-1H-indole-6-carboxylicacidcyclopropylamide], 0.038 µM.
As to `Cc1onc(-c2cccc(F)c2)c1C(=O)c1cn(-c2ccccc2)c2cc(C(=O)NC3CCCC3)ccc12` [Example 51, 3-[3-(3-Fluoro-phenyl)-5-methyl-isoxazole-4-carbonyl]-1-phenyl-1H-indole-6-carboxylic acidcyclopentylamide], the Ki was 0.0402 µM.
As to `Cc1onc(-c2ccc(F)cc2)c1C(=O)c1c[nH]c2cc(C(=O)NCC3CC3)ccc12` [Example 1, 3-[3-(4-Fluoro-phenyl)-5-methyl-isoxazole-4-carbonyl]-1H-indole-6-carboxylic acid cyclopropylmethyl-amide], under setting [2], the Ki worked out at 0.00645 µM.

Source of the values: patent publication US7378435B2, “Aryl-isoxazole-4-carbonyl-indole-carboxylic acid amide derivatives” (Hoffmann-La Roche Inc., priority 2005, dated 2008).
